Source: patent US11452717B2, “Small molecule activators of nicotinamide phosphoribosyltransferase (NAMPT) and uses thereof” (Sanford Burnham Prebys Medical Discovery Institute, priority 2017, dated 2022)

These compounds were tested against NAMPT enzyme (Homo sapiens (Human), UniProt P43490) (assay: Enzyme Assay and NMN Detection (NAMPT reaction, fluorescence detection of NMN)). Details: Table B-1; NAMPT activation, NMN formation.
Type: biochemical
How it was run: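 NMN formed was read at ex380/em460 after acetophenone/KOH derivatization and formic acid addition, using a same-day calibration curve. Final conditions: NAMPT 16 nM, nicotinamide 5 uM, PRPP 6.25 uM, ATP 120 uM, pyrophosphatase 0.04 U/ml, pH 7.5 HEPES buffer with MgCl2 and TCEP, 2 h at room temperature.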

NAMPT enzyme, sequence (P43490 whole entry, species assumed): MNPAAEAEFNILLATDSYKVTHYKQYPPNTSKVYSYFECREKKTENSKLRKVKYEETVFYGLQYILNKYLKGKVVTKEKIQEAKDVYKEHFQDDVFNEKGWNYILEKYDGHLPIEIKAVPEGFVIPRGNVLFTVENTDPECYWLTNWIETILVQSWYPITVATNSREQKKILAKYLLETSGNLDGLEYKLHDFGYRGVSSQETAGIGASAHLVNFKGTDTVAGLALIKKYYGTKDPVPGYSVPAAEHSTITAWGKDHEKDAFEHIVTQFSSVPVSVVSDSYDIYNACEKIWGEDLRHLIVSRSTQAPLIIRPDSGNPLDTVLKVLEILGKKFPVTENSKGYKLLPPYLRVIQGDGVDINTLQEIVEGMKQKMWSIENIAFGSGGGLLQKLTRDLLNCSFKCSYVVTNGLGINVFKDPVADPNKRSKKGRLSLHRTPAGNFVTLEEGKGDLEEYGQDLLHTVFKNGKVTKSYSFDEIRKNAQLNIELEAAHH

**Q.** For `O=C(NCc1cn[nH]c1)Nc1ccc(S(=O)(=O)c2ccc(Cl)cc2)cc1` [1-[4-(4-Chloro-benzenesulfonyl)-phenyl]-3-(1H-pyrazol-4-ylmethyl)-urea], which EC50 is on record?
**A.** < 0.1 µM

**Q.** How did the EC50 turn out when `COc1ccc(S(=O)(=O)c2ccc(NC(=O)NCc3cn[nH]c3)cc2)cc1` [1-[4-(4-Methoxy-benzenesulfonyl)-phenyl]-3-(1H-pyrazol-4-ylmethyl)-urea] was run?
**A.** < 0.1 µM

Same assay, conditions: Table B-2; NAMPT activation, NMN formation

**Q.** How did the EC50 turn out when `O=C(NCc1ccncc1)Nc1ccc(S(=O)(=O)c2ccc(Cl)cc2)cc1` [1-[4-(4-Chloro-benzenesulfonyl)-phenyl]-3-pyridin-4-ylmethyl-urea] was run?
**A.** 0.1 to 2 µM

**Q.** For `COc1ccc(S(=O)(=O)c2ccc(NC(=O)NCc3ccncc3)cc2)cc1` [1-[4-(4-Methoxy-benzenesulfonyl)-phenyl]-3-pyridin-4-ylmethyl-urea], which EC50 is on record?
**A.** 0.1 to 2 µM

**Q.** For `CN1CCN(S(=O)(=O)c2ccc(NC(=O)NCc3ccncc3)cc2)CC1` [1-[4-(4-Methyl-piperazine-1-sulfonyl)-phenyl]-3-pyridin-4-ylmethyl-urea], which EC50 is on record?
**A.** 0.1 to 2 µM

**Q.** `O=C(NCc1ccncc1)Nc1ccc(S(=O)(=O)N2CCc3cccc(Cl)c3C2)cc1` [1-[4-(8-Chloro-3,4-dihydro-1H-isoquinoline-2-sulfonyl)-phenyl]-3-pyridin-4-ylmethyl-urea] was tested. Which EC50 did it give?
**A.** < 0.1 µM

**Q.** For `O=C(NCc1ccncc1)Nc1ccc(S(=O)(=O)N2CCc3cccc(F)c3C2)cc1` [1-[4-(8-Fluoro-3,4-dihydro-1H-isoquinoline-2-sulfonyl)-phenyl]-3-pyridin-4-ylmethyl-urea], which EC50 is on record?
**A.** < 0.1 µM

**Q.** Which EC50 does the source give for `Cc1cccc2c1CN(S(=O)(=O)c1ccc(NC(=O)NCc3ccncc3)cc1)CC2` [1-[4-(8-Methyl-3,4-dihydro-1H-isoquinoline-2-sulfonyl)-phenyl]-3-pyridin-4-ylmethyl-urea] here?
**A.** < 0.1 µM

Same assay, conditions: Table B-4; NAMPT activation, NMN formation

**Q.** How did the EC50 turn out when `O=C(NCc1cn[nH]c1)Nc1ccc(S(=O)(=O)c2ccccc2-c2cccc(F)c2)cc1` [1-[4-(3′-Fluoro-biphenyl-2-sulfonyl)-phenyl]-3-(1H-pyrazol-4-ylmethyl)-urea] was run?
**A.** < 0.1 µM

**Q.** With `COc1cccc(-c2ccccc2S(=O)(=O)c2ccc(NC(=O)NCc3cn[nH]c3)cc2)c1` [1-[4-(3′-Methoxy-biphenyl-2-sulfonyl)-phenyl]-3-(1H-pyrazol-4-ylmethyl)-urea] as the compound, how does the EC50 read?
**A.** 2 to 5 µM

**Q.** Which EC50 does the source give for `Cc1cccc(-c2ccccc2S(=O)(=O)c2ccc(NC(=O)NCc3cn[nH]c3)cc2)c1` [1-[4-(3′-Methyl-biphenyl-2-sulfonyl)-phenyl]-3-(1H-pyrazol-4-ylmethyl)-urea] here?
**A.** 0.1 to 2 µM

**Q.** How did the EC50 turn out when `N#Cc1ccc(S(=O)(=O)c2ccc(NC(=O)NCc3cn[nH]c3)cc2)cc1` [1-[4-(4-Cyano-benzenesulfonyl)-phenyl]-3-(1H-pyrazol-4-ylmethyl)-urea] was run?
**A.** 0.1 to 2 µM

**Q.** For `O=C(NCc1cn[nH]c1)Nc1ccc(S(=O)(=O)c2ccccc2-c2ccc(F)cc2)cc1` [1-[4-(4′-Fluoro-biphenyl-2-sulfonyl)-phenyl]-3-(1H-pyrazol-4-ylmethyl)-urea], which EC50 is on record?
**A.** 0.1 to 2 µM

**Q.** How did the EC50 turn out when `COc1ccc(-c2ccccc2S(=O)(=O)c2ccc(NC(=O)NCc3cn[nH]c3)cc2)cc1` [1-[4-(4′-Methoxy-biphenyl-2-sulfonyl)-phenyl]-3-(1H-pyrazol-4-ylmethyl)-urea] was run?
**A.** 5 to 20 µM

**Q.** `Cc1ccc(-c2ccccc2S(=O)(=O)c2ccc(NC(=O)NCc3cn[nH]c3)cc2)cc1` [1-[4-(4′-Methyl-biphenyl-2-sulfonyl)-phenyl]-3-(1H-pyrazol-4-ylmethyl)-urea] was tested. Which EC50 did it give?
**A.** 5 to 20 µM

**Q.** `O=C(NCc1cn[nH]c1)Nc1ccc(S(=O)(=O)c2ccc(Cl)cn2)cc1` [1-[4-(5-Chloro-pyridine-2-sulfonyl)-phenyl]-3-(1H-pyrazol-4-ylmethyl)-urea] was tested. Which EC50 did it give?
**A.** 0.1 to 2 µM

**Q.** Which EC50 does the source give for `Cn1nc(-c2ccc(NC(=O)NCc3cn[nH]c3)cc2)c2cc(F)ccc21` [1-[4-(5-Fluoro-1-methyl-1H-indazol-3-yl)-phenyl]-3-(1H-pyrazol-4-ylmethyl)-urea] here?
**A.** 0.1 to 2 µM

**Q.** Which EC50 does the source give for `COc1ccc2c(c1)c(-c1ccc(NC(=O)NCc3cn[nH]c3)cc1)nn2C` [1-[4-(5-Methoxy-1-methyl-1H-indazol-3-yl)-phenyl]-3-(1H-pyrazol-4-ylmethyl)-urea] here?
**A.** 0.1 to 2 µM

**Q.** How did the EC50 turn out when `Cc1ccc(S(=O)(=O)c2ccc(NC(=O)NCc3cn[nH]c3)cc2)nc1` [1-[4-(5-Methyl-pyridine-2-sulfonyl)-phenyl]-3-(1H-pyrazol-4-ylmethyl)-urea] was run?
**A.** 0.1 to 2 µM

**Q.** `Cc1ccc(S(=O)(=O)c2ccc(NC(=O)NCc3cn[nH]c3)cc2)cn1` [1-[4-(6-Methyl-pyridine-3-sulfonyl)-phenyl]-3-(1H-pyrazol-4-ylmethyl)-urea] was tested. Which EC50 did it give?
**A.** 0.1 to 2 µM

Same assay, conditions: Table B-5; NAMPT activation, NMN formation

**Q.** Which EC50 does the source give for `N#Cc1ccc(S(=O)(=O)c2ccc(NC(=O)NCc3cnco3)cc2)cc1` [1-[4-(4-Cyano-benzenesulfonyl)-phenyl]-3-oxazol-5-ylmethyl-urea] here?
**A.** 0.1 to 2 µM

**Q.** How did the EC50 turn out when `COc1ccc(S(=O)(=O)c2ccc(NC(=O)NCc3cnco3)cc2)cc1` [1-[4-(4-Methoxy-benzenesulfonyl)-phenyl]-3-oxazol-5-ylmethyl-urea] was run?
**A.** 0.1 to 2 µM

**Q.** Which EC50 does the source give for `O=C(NCc1cnco1)Nc1ccc(S(=O)(=O)c2ccc(Cl)cn2)cc1` [1-[4-(5-Chloro-pyridine-2-sulfonyl)-phenyl]-3-oxazol-5-ylmethyl-urea] here?
**A.** 2 to 5 µM

**Q.** How did the EC50 turn out when `Cn1nc(-c2ccc(NC(=O)NCc3cnco3)cc2)c2cc(F)ccc21` [1-[4-(5-Fluoro-1-methyl-1H-indazol-3-yl)-phenyl]-3-oxazol-5-ylmethyl-urea] was run?
**A.** 2 to 5 µM

**Q.** How did the EC50 turn out when `COc1ccc2c(c1)c(-c1ccc(NC(=O)NCc3cnco3)cc1)nn2C` [1-[4-(5-Methoxy-1-methyl-1H-indazol-3-yl)-phenyl]-3-oxazol-5-ylmethyl-urea] was run?
**A.** > 20 µM

**Q.** With `O=C(NCc1cnco1)Nc1ccc(S(=O)(=O)c2ccc(Cl)nc2)cc1` [1-[4-(6-Chloro-pyridine-3-sulfonyl)-phenyl]-3-oxazol-5-ylmethyl-urea] as the compound, how does the EC50 read?
**A.** 2 to 5 µM

**Q.** Which EC50 does the source give for `O=C(NCc1cnco1)Nc1ccc(S(=O)(=O)c2ccc(O)nc2)cc1` [1-[4-(6-Hydroxy-pyridine-3-sulfonyl)-phenyl]-3-oxazol-5-ylmethyl-urea] here?
**A.** 0.1 to 2 µM

**Q.** `COc1ccc(S(=O)(=O)c2ccc(NC(=O)NCc3cnco3)cc2)cn1` [1-[4-(6-Methoxy-pyridine-3-sulfonyl)-phenyl]-3-oxazol-5-ylmethyl-urea] was tested. Which EC50 did it give?
**A.** 0.1 to 2 µM

**Q.** Which EC50 does the source give for `Cc1ccc(S(=O)(=O)c2ccc(NC(=O)NCc3cnco3)cc2)cn1` [1-[4-(6-Methyl-pyridine-3-sulfonyl)-phenyl]-3-oxazol-5-ylmethyl-urea] here?
**A.** 0.1 to 2 µM

Same assay, conditions: Table B-6; NAMPT activation, NMN formation

**Q.** How did the EC50 turn out when `O=C(NCc1ccncc1)Nc1ccc(S(=O)(=O)c2ccccc2-c2cccc(Cl)c2)cc1` [1-[4-(3′-Chloro-biphenyl-2-sulfonyl)-phenyl]-3-pyridin-4-ylmethyl-urea] was run?
**A.** 0.1 to 2 µM

**Q.** Which EC50 does the source give for `O=C(NCc1ccncc1)Nc1ccc(S(=O)(=O)c2ccccc2-c2cccc(F)c2)cc1` [1-[4-(3′-Fluoro-biphenyl-2-sulfonyl)-phenyl]-3-pyridin-4-ylmethyl-urea] here?
**A.** < 0.1 µM

**Q.** Which EC50 does the source give for `COc1cccc(-c2ccccc2S(=O)(=O)c2ccc(NC(=O)NCc3ccncc3)cc2)c1` [1-[4-(3′-Methoxy-biphenyl-2-sulfonyl)-phenyl]-3-pyridin-4-ylmethyl-urea] here?
**A.** 0.1 to 2 µM

**Q.** For `Cc1cccc(-c2ccccc2S(=O)(=O)c2ccc(NC(=O)NCc3ccncc3)cc2)c1` [1-[4-(3′-Methyl-biphenyl-2-sulfonyl)-phenyl]-3-pyridin-4-ylmethyl-urea], which EC50 is on record?
**A.** 0.1 to 2 µM

**Q.** `N#Cc1ccc(S(=O)(=O)c2ccc(NC(=O)NCc3ccncc3)cc2)cc1` [1-[4-(4-Cyano-benzenesulfonyl)-phenyl]-3-pyridin-4-ylmethyl-urea] was tested. Which EC50 did it give?
**A.** 0.1 to 2 µM

**Q.** With `O=C(NCc1ccncc1)Nc1ccc(S(=O)(=O)c2ccccc2-c2ccc(Cl)cc2)cc1` [1-[4-(4′-Chloro-biphenyl-2-sulfonyl)-phenyl]-3-pyridin-4-ylmethyl-urea] as the compound, how does the EC50 read?
**A.** 5 to 20 µM

**Q.** With `O=C(NCc1ccncc1)Nc1ccc(S(=O)(=O)c2ccccc2-c2ccc(F)cc2)cc1` [1-[4-(4′-Fluoro-biphenyl-2-sulfonyl)-phenyl]-3-pyridin-4-ylmethyl-urea] as the compound, how does the EC50 read?
**A.** 0.1 to 2 µM

**Q.** Which EC50 does the source give for `COc1ccc(-c2ccccc2S(=O)(=O)c2ccc(NC(=O)NCc3ccncc3)cc2)cc1` [1-[4-(4′-Methoxy-biphenyl-2-sulfonyl)-phenyl]-3-pyridin-4-ylmethyl-urea] here?
**A.** 5 to 20 µM

**Q.** `Cc1ccc(-c2ccccc2S(=O)(=O)c2ccc(NC(=O)NCc3ccncc3)cc2)cc1` [1-[4-(4′-Methyl-biphenyl-2-sulfonyl)-phenyl]-3-pyridin-4-ylmethyl-urea] was tested. Which EC50 did it give?
**A.** 2 to 5 µM

**Q.** `O=C(NCc1ccncc1)Nc1ccc(S(=O)(=O)c2ccc(Cl)cn2)cc1` [1-[4-(5-Chloro-pyridine-2-sulfonyl)-phenyl]-3-pyridin-4-ylmethyl-urea] was tested. Which EC50 did it give?
**A.** 0.1 to 2 µM

**Q.** Which EC50 does the source give for `Cn1nc(-c2ccc(NC(=O)NCc3ccncc3)cc2)c2cc(F)ccc21` [1-[4-(5-Fluoro-1-methyl-1H-indazol-3-yl)-phenyl]-3-pyridin-4-ylmethyl-urea] here?
**A.** 0.1 to 2 µM

**Q.** How did the EC50 turn out when `COc1ccc2c(c1)c(-c1ccc(NC(=O)NCc3ccncc3)cc1)nn2C` [1-[4-(5-Methoxy-1-methyl-1H-indazol-3-yl)-phenyl]-3-pyridin-4-ylmethyl-urea] was run?
**A.** 0.1 to 2 µM

**Q.** Which EC50 does the source give for `O=C(NCc1ccncc1)Nc1ccc(S(=O)(=O)c2ccc(Cl)nc2)cc1` [1-[4-(6-Chloro-pyridine-3-sulfonyl)-phenyl]-3-pyridin-4-ylmethyl-urea] here?
**A.** 0.1 to 2 µM

**Q.** Which EC50 does the source give for `O=C(NCc1ccncc1)Nc1ccc(S(=O)(=O)c2ccc(O)nc2)cc1` [1-[4-(6-Hydroxy-pyridine-3-sulfonyl)-phenyl]-3-pyridin-4-ylmethyl-urea] here?
**A.** 0.1 to 2 µM

**Q.** `COc1ccc(S(=O)(=O)c2ccc(NC(=O)NCc3ccncc3)cc2)cn1` [1-[4-(6-Methoxy-pyridine-3-sulfonyl)-phenyl]-3-pyridin-4-ylmethyl-urea] was tested. Which EC50 did it give?
**A.** 0.1 to 2 µM

**Q.** For `Cc1ccc(S(=O)(=O)c2ccc(NC(=O)NCc3ccncc3)cc2)cn1` [1-[4-(6-Methyl-pyridine-3-sulfonyl)-phenyl]-3-pyridin-4-ylmethyl-urea], which EC50 is on record?
**A.** 0.1 to 2 µM
